Results taken from patent publication US20230066648A1, “METHOD FOR INDUCING TRANSDIFFERENTIATION OF SOMATIC CELLS INTO MAMMARY EPITHELIAL CELLS IN VITRO USING SMALL MOLECULE COMPOUND” (GUANGXI UNIVERSITY, priority 2019, published 2023).
“Also recorded” adds a separate entry of the source.

Tested on: ear margin fibroblasts (GEFs) of goat
Assay: induction of transdifferentiation of fibroblasts into mammary epithelial cells with induction medium, cell morphology
Format: cell-based
Settings: for transdifferentiation of fibroblasts into mammary epithelial cells with the inhibitor alone: 8 d, 10 μM SB431542, 5 μM SB525334, 1 μM LDN193189 induction medium alone
Procedure: 1. The ear margin fibroblasts (GEFs) of goat were isolated and cultured by a tissue adherence method to provide cell materials for subsequent induction.
2. The fibroblasts were inoculated into a 60 mm cell culture dish at a density of 5×10^5, and after culturing for 8 h to 24 h in the high-glucose DMEM+10% FBS (volume percentage), the induction medium BFRTV was replaced, and then cultured at 37° C. for 8 d in a 5% CO2 incubator, where the medium was changed every two days.
3. When cultured to the 8th day, CiMECs can be subcultured and inoculated onto a plate pretreated with Matrix (a volume ratio of Matrix to gelatin was 1:50), and then cultured in a mammary epithelial cell medium, when the cell confluence reached about 90%, the cells were subcultured or frozen for subsequent detection.
Taking the ear margin fibroblasts of Guanzhong dairy goat as an experimental object, the concentration of five small molecule compounds currently used was adjusted, and the concentration of BFRTV was adjusted as a whole under the condition that the basal solution remained unchanged.

SMILES	transdifferentiation of fibroblasts into mammary epithelial cells with the inhibitor alone	induction of mammary epithelial cells with Repsox alone (R induction medium) (R induction medium, no other small molecule)
c1ccc2c(-c3cnn4cc(-c5ccc(N6CCNCC6)cc5)cnc34)ccnc2c1 [LDN193189]	the fibroblasts can be induced into mammary epithelial cells; also recorded: could still induce the transdifferentiation of fibroblasts into mammary epithelial cells	–
Cc1cccc(-c2[nH]ncc2-c2ccc3ncccc3n2)n1 [Repsox]	–	mammary epithelial cells (CiMECs) similar to those by BFRTV induction medium were obtained
NC(=O)c1ccc(-c2nc(-c3ccc4c(c3)OCO4)c(-c3ccccn3)[nH]2)cc1 [SB431542]	the fibroblasts can be induced into mammary epithelial cells; also recorded: could still induce the transdifferentiation of fibroblasts into mammary epithelial cells	–
Cc1cccc(-c2[nH]c(C(C)(C)C)nc2-c2ccc3nccnc3c2)n1 [SB525334]	the fibroblasts can be induced into mammary epithelial cells; also recorded: could still induce the transdifferentiation of fibroblasts into mammary epithelial cells	–
